# Experimental data as given in patent publication US20030041357A1, “Herbicide resistant plants” (priority 1996, published 2003).
# Several values for one entry are separate records, joined by “and”; a condition that tells them apart may be missing. Identical values can stand only once.
# Tests used:
# [1] = system: tobacco plants transformed with the Pseudomonas 4-HPPD gene; assay: Explant bleaching test on MS agar, 4-HPPD transformants (Example 1); type: in vivo, Nicotiana tabacum var Samsun; details: subset of ZA1296 resistant plants
# [2] = system: plants transformed with the Synechocystis sp. PCC6803 4-HPPD gene; assay: Explant bleaching test on MS agar, 4-HPPD transformants (Example 2); type: in vivo, Potato and tomato; details: subset of ZA1296 resistant plants
# [3] = system: wild type tobacco; assay: Kill curve of glyphosate in tissue culture; type: in vivo, Nicotiana tabaccum var Samsun; details: 0.005 mM in MS medium, two weeks
# Description: Selection on glyphosate A kill curve is constructed for growth of tobacco in tissue culture on glyphosate containing medium. This is done by inserting a stem segment ˜6 mm long and carrying a leaf node into MS medium containing a range of glyphosate isopropylamine concentrations. Four/five stem segments are used at each concentration.
# [4] = system: wild type controls; assay: Growth on herbicide-containing tissue culture medium; type: in vivo, Tobacco; details: 0.01 and 0.05 mM glyphosate; 10 and 40 ppm alachlor
# [5] = system: primary transformants from pDV6-Bin; assay: as above; type: in vivo, Tobacco; details: a number of transgenics; 0.01 and 0.05 mM glyphosate; 10 and 40 ppm alachlor
# [6] = system: pDV6 plants expressing both glyphosate resistance genes and GST; assay: Pre-em/post-em herbicide treatment of DV6 plants (Table 1); parameters: species or system Tobacco; details: in vivo
# [7] = system: Wild type plants; assay: Pre-em/post-em herbicide treatment (Table 1); type: in vivo, Tobacco; details: post-em 800 g/ha
# [8] = system: pDV3 primary transformants (GOX/EPSPS tobacco); assay: Glyphosate spray test of pDV3 lines; type: in vivo, Nicotiana tabaccum var Samsun; parameters: scale not given here
# Procedure: (§1) A kill curve is established for the effect of glyphosate on wild type tobacco. Wild type tobacco growing in tissue culture is sub-cultured by taking stem segments and growing in fresh medium to generate 20 new plants. These are grown in tissue culture for one month before transfer to 3 inch pots in John Innes No 3 compost. They are initially covered in fleece to protect them. After uncovering they are allowed to acclimatise for four days before being sprayed. After spraying watering is only into the saucers i.e. no water is allowed to touch the leaves for five days. Scoring was done 8 days and 28 days after treatment.
# (§2) Following construction of the glyphosate kill curve, a number of pDV1, 2 and 3 lines are spray tested with appropriate rates of glyphosate.
# [9] = system: Wildtype tobacco; assay: Glyphosate spray test (Table 8 control); type: in vivo, Nicotiana tabaccum var Samsun
# Procedure: as §1, §2
# [10] = system: tobacco from cross DV3 #43B x ET4-208; assay: Glyphosate spray of DV3 #43B x ET4-208 seedlings; type: in vivo; details: 500 and 800 g/ha on seedlings tolerant to bleaching herbicides; scored 14 and 28 DAT
# [11] = system: DV6/HPPD tobacco; assay: Herbicide trial of DV6/HPPD cross (Example 10); type: in vivo; details: 800 g/ha on seedlings surviving 300 g/ha ZA1296
# [12] = no pre-em, third line (plant not given)
smiles,measurement,setting,value
"CS(=O)(=O)c1cc(C(F)(F)F)ccc1C(=O)c1cnoc1C1CC1 [Isoxaflutole, 5-cyclopropyl-4-(2-methylsulphonyl-4-trifluoromethylbenzoyl)isoxazole]",resistance of the herbicide resistant transgenic plants,[1],even more resistant
same,resistance of the herbicide resistant transgenic plants,[2],resistant
CC(C)N.O=C(O)CNCP(=O)(O)O [Glyphosate isopropylamine],Growth of explant,[3],No growth in any organ
"O=C(O)CNCP(=O)(O)O [Glyphosate, glyphosate]",growth on tissue culture medium,[4],fail to
same,growth on tissue culture medium,[5],grow successfully
same,"replicate score for damage, replicate a",[6],75 and 100
same,"replicate score for damage, replicate b",[6],0
same,"replicate score for damage, replicate c",[6],0
same,"replicate score for damage, replicate d",[6],0 and 95
same,"% Phytotoxicity (mean, 21 DAT)","[7]; Wild type, no pre-em treatment",86.25%
same,"replicate score for damage, replicate a",[7]; [12],90
same,"replicate score for damage, replicate b",[7]; [12],90
same,"replicate score for damage, replicate c",[7]; [12],90
same,"replicate score for damage, replicate d",[7]; [12],75
same,dose/response to glyphosate spray (damage),"[8]; pDV3 #11, 100 g/ha",0
same,dose/response to glyphosate spray (damage),"[8]; pDV3 #11, 300 g/ha",0
same,dose/response to glyphosate spray (damage),"[8]; pDV3 #11, 1000 g/ha",25
same,dose/response to glyphosate spray (damage),"[8]; pDV3 #11, 3000 g/ha",70
same,dose/response to glyphosate spray (damage),"[8]; pDV3 #11, 9000 g/ha",80
same,dose/response to glyphosate spray (damage),"[8]; pDV3 #14, 100 g/ha",7
same,dose/response to glyphosate spray (damage),"[8]; pDV3 #14, 300 g/ha",22
same,dose/response to glyphosate spray (damage),"[8]; pDV3 #14, 1000 g/ha",13
same,dose/response to glyphosate spray (damage),"[8]; pDV3 #14, 3000 g/ha",33
same,dose/response to glyphosate spray (damage),"[8]; pDV3 #14, 9000 g/ha",76
same,dose/response to glyphosate spray (damage),"[8]; pDV3 #19, 100 g/ha",0
same,dose/response to glyphosate spray (damage),"[8]; pDV3 #19, 300 g/ha",0
same,dose/response to glyphosate spray (damage),"[8]; pDV3 #19, 1000 g/ha",0
same,dose/response to glyphosate spray (damage),"[8]; pDV3 #19, 3000 g/ha",35
same,dose/response to glyphosate spray (damage),"[8]; pDV3 #19, 9000 g/ha",80
same,dose/response to glyphosate spray (damage),"[8]; pDV3 #21, 100 g/ha",0
same,dose/response to glyphosate spray (damage),"[8]; pDV3 #21, 300 g/ha",5
same,dose/response to glyphosate spray (damage),"[8]; pDV3 #21, 1000 g/ha",0
same,dose/response to glyphosate spray (damage),"[8]; pDV3 #21, 3000 g/ha",24
same,dose/response to glyphosate spray (damage),"[8]; pDV3 #21, 9000 g/ha",78
same,dose/response to glyphosate spray (damage),"[8]; pDV3 #31, 100 g/ha",12
same,dose/response to glyphosate spray (damage),"[8]; pDV3 #31, 300 g/ha",0
same,dose/response to glyphosate spray (damage),"[8]; pDV3 #31, 1000 g/ha",4
same,dose/response to glyphosate spray (damage),"[8]; pDV3 #31, 3000 g/ha",26
same,dose/response to glyphosate spray (damage),"[8]; pDV3 #31, 9000 g/ha",78
same,dose/response to glyphosate spray (damage),"[8]; pDV3 #34, 100 g/ha",0
same,dose/response to glyphosate spray (damage),"[8]; pDV3 #34, 300 g/ha",0
same,dose/response to glyphosate spray (damage),"[8]; pDV3 #34, 1000 g/ha",6
same,dose/response to glyphosate spray (damage),"[8]; pDV3 #34, 3000 g/ha",30
same,dose/response to glyphosate spray (damage),"[8]; pDV3 #34, 9000 g/ha",63
same,dose/response to glyphosate spray (damage),"[8]; pDV3 #36, 100 g/ha",0
same,dose/response to glyphosate spray (damage),"[8]; pDV3 #36, 300 g/ha",0
same,dose/response to glyphosate spray (damage),"[8]; pDV3 #36, 1000 g/ha",0
same,dose/response to glyphosate spray (damage),"[8]; pDV3 #36, 3000 g/ha",0
same,dose/response to glyphosate spray (damage),"[8]; pDV3 #36, 9000 g/ha",0
same,dose/response to glyphosate spray (damage),"[8]; pDV3 #37, 100 g/ha",0
same,dose/response to glyphosate spray (damage),"[8]; pDV3 #37, 300 g/ha",0
same,dose/response to glyphosate spray (damage),"[8]; pDV3 #37, 1000 g/ha",9
same,dose/response to glyphosate spray (damage),"[8]; pDV3 #37, 3000 g/ha",24
same,dose/response to glyphosate spray (damage),"[8]; pDV3 #37, 9000 g/ha",72
same,dose/response to glyphosate spray (damage),"[8]; pDV3 #43, 100 g/ha",0
same,dose/response to glyphosate spray (damage),"[8]; pDV3 #43, 300 g/ha",0
same,dose/response to glyphosate spray (damage),"[8]; pDV3 #43, 1000 g/ha",0
same,dose/response to glyphosate spray (damage),"[8]; pDV3 #43, 3000 g/ha",6
same,dose/response to glyphosate spray (damage),"[8]; pDV3 #43, 9000 g/ha",73
same,dose/response to glyphosate spray (damage),"[8]; pDV3 #44, 100 g/ha",0
same,dose/response to glyphosate spray (damage),"[8]; pDV3 #44, 300 g/ha",40
same,dose/response to glyphosate spray (damage),"[8]; pDV3 #44, 1000 g/ha",45
same,dose/response to glyphosate spray (damage),"[8]; pDV3 #44, 3000 g/ha",78
same,dose/response to glyphosate spray (damage),"[8]; pDV3 #44, 9000 g/ha",85
same,dose/response to glyphosate spray (damage),"[8]; pDV3 #45, 100 g/ha",0
same,dose/response to glyphosate spray (damage),"[8]; pDV3 #45, 300 g/ha",0
same,dose/response to glyphosate spray (damage),"[8]; pDV3 #45, 1000 g/ha",3
same,dose/response to glyphosate spray (damage),"[8]; pDV3 #45, 3000 g/ha",9
same,dose/response to glyphosate spray (damage),"[8]; pDV3 #45, 9000 g/ha",70
same,dose/response to glyphosate spray (damage),"[8]; pDV3 #47, 100 g/ha",5
same,dose/response to glyphosate spray (damage),"[8]; pDV3 #47, 300 g/ha",0
same,dose/response to glyphosate spray (damage),"[8]; pDV3 #47, 1000 g/ha",0
same,dose/response to glyphosate spray (damage),"[8]; pDV3 #47, 3000 g/ha",11
same,dose/response to glyphosate spray (damage),"[8]; pDV3 #47, 9000 g/ha",72
same,dose/response to glyphosate spray (damage),"[8]; pDV3 #60, 100 g/ha",0
same,dose/response to glyphosate spray (damage),"[8]; pDV3 #60, 300 g/ha",0
same,dose/response to glyphosate spray (damage),"[8]; pDV3 #60, 1000 g/ha",0
same,dose/response to glyphosate spray (damage),"[8]; pDV3 #60, 3000 g/ha",19
same,dose/response to glyphosate spray (damage),"[8]; pDV3 #60, 9000 g/ha",63
same,dose/response to glyphosate spray (damage),"[8]; pDV3 #64, 100 g/ha",0
same,dose/response to glyphosate spray (damage),"[8]; pDV3 #64, 300 g/ha",5
same,dose/response to glyphosate spray (damage),"[8]; pDV3 #64, 1000 g/ha",0
same,dose/response to glyphosate spray (damage),"[8]; pDV3 #64, 3000 g/ha",12
same,dose/response to glyphosate spray (damage),"[8]; pDV3 #64, 9000 g/ha",63
same,dose/response to glyphosate spray (damage),[9]; 12.33 g/ha,2
same,dose/response to glyphosate spray (damage),[9]; 37 g/ha,3
same,dose/response to glyphosate spray (damage),[9]; 100 g/ha,20
same,dose/response to glyphosate spray (damage),[9]; 300 g/ha,80
same,dose/response to glyphosate spray (damage),[9]; 1000 g/ha,93
same,resistance to post-emergence spray,[10],resistant
same,tolerance to spray,[11],demonstrate tolerance
